Measured values taken from patent US20240101538A1, “PROTEIN-PROTEIN INTERACTION MODULATORS OF AURORA KINASE A AND THEIR USE IN THE PREVENTION AND/OR TREATMENT OF CANCER” (EBERHARD KARLS UNIVERSITÄT TÜBINGEN, priority 2020, published 2024).
Where two headings read alike, the source gives them in different places.

Tests used:
NMP53^−/− cells = experiment: Colony formation assay on NMP53^−/− cells; assay type: cell-based, murine; conditions: colony formation assay; for minimal effective concentration: 5 days, read-out: EC (NMP53^−/−); for selectivity for NMP53^−/− cells: NMP53^−/− versus NMCdkn2a^ARF−/− cells
Source text: (§1) To evaluate the effect of small molecules equipped with R-spine interacting moieties, the inventors screened a focused library of proprietary p38a MAP-Kinase inhibitors which were equipped with R-spine interacting pharmacophores. To this end, the inventors utilized a screening system as developed in Dauch et al.^2 The screening system is based on colony formation assays of cell lines isolated from Nras-driven, Trp53-deficient murine HCCs, whose development is dependent on MYC (NMP53^−/− cells), as well as Nras-driven, Cdkn2a^ARF-deficient murine HCCs, which develop independently of MYC (NMCdkn2a^ARF−/− cells). Importantly, NMP53^−/− cells are sensitive to AURKA inhibitors, which induce a conformational shift in AURKA, whereas NMCdkn2a^ARF−/− are not sensitive to such compounds.
(§2) For Colony Formation Assays, cells were seeded at a density of 50 000 cells per 6 well and next day treated with a 2-fold dilution series of the indicated compounds or the highest corresponding DMSO concentration as control. After 5 days, the cells were fixed with a 10% formaldehyde solution for 30 min, washed once with water, stained with a 0.5% crystal violet solution for 30 min and washed twice with water. The compounds effective concentration (EC) was determined according to the lowest concentration in the dilution series, that inhibited cell growth substantially. The resulting benzamide containing hit structure 1, with a twofold selectivity towards NMP53^−/− cells (effective concentration on NMP53^−/− cells (EC): 2 μM, EC on Cdkn2a^ARF−/−: 4 μM, FIG. 1), served as the inventors' starting point for further compound development.

NMCdkn2a^ARF−/− cells = experiment: Colony formation assay on NMCdkn2a^ARF−/− cells; assay type: cell-based, murine; conditions: 5 days, read-out: EC (NMCdkn2a^ARF−/−)
Source text: as §1, §2

AURKA = AURKA (Homo sapiens (Human), UniProt O14965); experiment: Radioisotope filter binding assay (HotSpotSM; ReactionBiology) for AURKA kinase inhibition; assay type: biochemical
Sequence of AURKA (O14965 whole entry): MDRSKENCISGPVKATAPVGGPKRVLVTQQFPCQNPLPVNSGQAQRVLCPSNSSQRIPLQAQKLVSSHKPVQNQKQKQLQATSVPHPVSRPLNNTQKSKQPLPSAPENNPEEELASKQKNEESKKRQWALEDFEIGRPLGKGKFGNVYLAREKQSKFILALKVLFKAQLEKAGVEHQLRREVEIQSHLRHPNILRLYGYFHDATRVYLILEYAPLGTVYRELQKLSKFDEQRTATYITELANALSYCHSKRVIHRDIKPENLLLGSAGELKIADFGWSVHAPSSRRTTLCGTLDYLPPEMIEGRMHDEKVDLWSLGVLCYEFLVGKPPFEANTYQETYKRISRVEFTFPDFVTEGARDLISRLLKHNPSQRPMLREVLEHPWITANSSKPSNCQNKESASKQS
Source text: Table 2 summarizes the EC values of different compounds of this invention determined by colony formation assays on NMP53^−/− and NMCdkn2a^ARF−/− cells, as well as the corresponding IC50 values for the kinase inhibition of AURKA, determined by radioisotope filter binding assay (HotSpotSM; ReactionBiology). Most compounds further show a strong selectivity for NMP53^−/− cells, which is indicated by a lower EC concentration of a particular compound required for inhibiting cell growth of NMP53^−/− cells compared to NMCdkn2a^ARF−/− cells.

late stage HCC = conditions: patients with late stage HCC, on average; cited from earlier work
MYC-AURKA interaction = MYC-AURKA interaction (Mus musculus (Mouse), UniProt P97477); experiment: Proximity ligation assay (PLA) for MYC and AURKA in NMP53^−/− cells; assay type: cell-based, murine; conditions: 24 h after treatment
Sequence of MYC-AURKA interaction (P97477 whole entry): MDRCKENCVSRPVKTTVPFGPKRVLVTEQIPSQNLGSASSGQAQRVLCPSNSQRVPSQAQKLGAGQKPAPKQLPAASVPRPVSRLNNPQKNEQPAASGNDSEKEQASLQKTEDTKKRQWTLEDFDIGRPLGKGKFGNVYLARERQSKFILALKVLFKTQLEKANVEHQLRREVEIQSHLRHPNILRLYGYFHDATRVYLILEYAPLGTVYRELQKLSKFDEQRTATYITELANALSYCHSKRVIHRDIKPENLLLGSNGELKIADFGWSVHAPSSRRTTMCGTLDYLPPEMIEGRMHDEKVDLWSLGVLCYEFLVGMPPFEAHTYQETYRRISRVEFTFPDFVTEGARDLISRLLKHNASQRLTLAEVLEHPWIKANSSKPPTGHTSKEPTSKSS
Experimental: To examine whether this MYC degradation is associated with MYC-AURKA PPI disruption, the inventors performed proximity ligation assays (PLA) in NMP53^−/− cells. For Proximity Ligation Assay (PLA), 50 000 cells were seeded on 12 mm glass slides placed in 6 well plates. On the next day, the cells were treated with the indicated compounds or the corresponding DMSO concentration for 2 h (compound 2c [N-(5-((4-(1H-pyrazole-4-yl)benzyl)amino)-2-fluorophenyl)-3-(furan-2-yl)propanamide] and compound 3a [N-(2-fluoro-5-((4-(1-methyl-1H-pyrazole-4-yl)benzyl)amino)phenyl)-3-(furan-2-yl)propanamide]) or 24 h (alisertib) and fixed for 10 min in 100% MeOH at −20° C. The glass slides were removed from the 6 well plates and the cells permeabilized with TBS+0.3% Triton X-100 for 5 min. After washing with PBS and blocking with 5% BSA in TBS+0.05% Tween for 30 min, the slides were incubated with MYC (Abeam ab32072, 1:200) and AURKA (Abcam ab13824, 1:200) specific antibodies in 1% BSA in TBS+0.05% Tween for 120 min at RT and washed 3 times with PBS for 5 min, wherein the MYC/TPX2 and AURKA specific antibodies are derived from a different species. After a 20 min pre-incubation of two PLA probes, directed against either species of the MYC/TPX2 and AURKA specific antibodies, at RT (DUO92001 and DUO92005 Sigma Aldrich, diluted 1:10 in 1% BSA in TBS+0.05% Tween), the slides were incubated with the probes for 60 min at 37° C. in a humidified chamber. The slides were washed 3 times with 1× wash buffer A (Sigma Aldrich DUO82049) for 5 min and incubated with the ligase solution (ligase diluted 1:40 in 5× ligase buffer and ddH2O, Sigma Aldrich DUO92008) for 60 min at 37° C. in a humidified chamber. […] The foci per cell were counted in a way that the cytoplasmic foci are counted to the cell with the closest nucleus (DAPI). Significance was calculated with the GraphPad Prism 8.4.0 software (GraphPad Software, La Jolla, CA) by using the nonparametric Mann Whitney test.

[1] = Mus musculus, 120 h, lowest concentration of 2-fold dilution series that inhibited cell growth substantially

Row | IC50 (AURKA) | Structure (SMILES) | minimal effective concentration (NMCdkn2a^ARF−/− cells; Mus musculus, 120 h) | minimal effective concentration (NMP53^−/− cells; Mus musculus, 120 h) | other results
1 | 0.0079 µM | O=C(CCc1ccccc1)Nc1cc(NCc2ccc(-c3cn[nH]c3)cc2)ccc1F [Compound 95b, N-(5-((4-(1H-Pyrazol-4-yl)benzyl)amino)-2-fluorophenyl)-3-phenylpropanamide] | 2 µM |  | minimal effective concentration (NMP53^−/− cells): 0.5 µM
2 | > 10 µM | Cn1cc(-c2ccc(CNc3ccc(F)c(NC(=O)CCc4ccsc4)c3)cc2)cn1 [Compound 107p, N-(2-fluoro-5-((4-(1-methyl-1H-pyrazol-4-yl)benzyl)amino)phenyl)-3-(thiophen-3-yl)propanamide] | > 0.25 µM | 0.062 µM | 
3 | 6.9 µM | O=C(CCc1ccccc1)Nc1cc(NCc2ccc(-c3cn[nH]c3)cc2)ccc1F [Compound 2a, N-(5-((4-(1H-pyrazole-4-yl)benzyl)amino)-2-fluorophenyl)-3-phenylpropanamide] |  |  | minimal effective concentration (NMP53^−/− cells; [1]): 0.5 µM; selectivity for NMP53^−/− cells (NMP53^−/− cells): 4 fold; minimal effective concentration (NMP53^−/− cells): >4 µM; minimal effective concentration (NMCdkn2a^ARF−/− cells): >4 µM; minimal effective concentration (NMCdkn2a^ARF−/− cells; [1]): 2 µM
4 | > 10 µM | Cn1cc(-c2ccc(CNc3ccc(F)c(NC(=O)/C=C/c4ccco4)c3)cc2)cn1 [Compound 107r, (E)-N-(2-fluoro-5-((4-(1-methyl-1H-pyrazol-4-yl)benzyl)amino)phenyl)-3-(furan-2-yl)acrylamide] | > 0.25 µM | 0.062 µM | 
5 | > 10 µM | O=C(Cc1ccccc1)Nc1cc(NCc2cc(-c3cc4cccnc4[nH]3)ccn2)ccc1F [Compound 18c, N-(5-(((4-(1H-Pyrrolo[2,3-b]pyridin-2-yl)pyridin-2-yl)methyl)amino)-2-fluorophenyl)-2-phenylacetamide] | 0.5 µM | 0.25 µM | 
6 | 0.532 µM | Cn1cc(-c2ccc(CNc3ccc(F)c(NC(=O)CCc4ccccc4)c3)cc2)cn1 [Compound 97, N-(2-fluoro-5-((4-(1-methyl-1H-pyrazol-4-yl)benzyl)amino)phenyl)-3-phenylpropanamide] | 1 µM | 0.25 µM | 
7 | > 10 µM | Cn1cc(-c2ccc(CNc3ccc(F)c(NC(=O)C=Cc4ccccc4)c3)cc2)cn1 [Compound 107s, N-(2-fluoro-5-((4-(1-methyl-1H-pyrazol-4-yl)benzyl)amino)phenyl)cinnamamide] | > 1 µM | 0.5 µM | 
8 | > 10 µM | Cn1cc(-c2ccc(CNc3ccc(F)c(NC(=O)CCc4ccoc4)c3)cc2)cn1 [Compound 107n, N-(2-fluoro-5-((4-(1-methyl-1H-pyrazol-4-yl)benzyl)amino)phenyl)-3-(furan-3-yl)propanamide] | > 0.25 µM | 0.062 µM | 
9 | > 10 µM | Cn1cc(-c2ccc(CNc3ccc(F)c(NC(=O)CCc4cccs4)c3)cc2)cn1 [Compound 107o, N-(2-fluoro-5-((4-(1-methyl-1H-pyrazol-4-yl)benzyl)amino)phenyl)-3-(thiophen-2-yl)propanamide] | 1 µM | 0.125 µM | 

Second part, the compound before the results:

Row | Structure (SMILES) | IC50 (AURKA) | minimal effective concentration (NMCdkn2a^ARF−/− cells; Mus musculus, 120 h) | minimal effective concentration (NMP53^−/− cells; Mus musculus, 120 h) | other results
10 | CNC(=O)c1cc(Oc2ccc(NC(=O)Nc3ccc(Cl)c(C(F)(F)F)c3)cc2)ccn1 [sorafenib] |  |  |  | prolonged survival (late stage HCC): 2.8 months
11 | COc1cc(Nc2ncc3c(n2)-c2ccc(Cl)cc2C(c2c(F)cccc2OC)=NC3)ccc1C(=O)O [alisertib, reference compound] |  |  |  | reduction of the MYC-AURKA interaction compared to DMSO (MYC-AURKA interaction): 60%
12 | CC(=O)n1cc(-c2ccc(CNc3ccc(F)c(NC(=O)CCc4ccco4)c3)cc2)cn1 [Compound 164, N-(5-((4-(1-Acetyl-1H-pyrazol-4-yl)benzyl)amino)-2-fluorophenyl)-3-(furan-2-yl)propanamide] |  | > 1 µM | 0.125 µM | 
13 | CC(C)n1cc(-c2ccc(CNc3ccc(F)c(NC(=O)CCc4ccco4)c3)cc2)cn1 [Compound 3d, N-(2-fluoro-5-((4-(1-isopropyl-1H-pyrazole-4-yl)benzyl)amino)phenyl)-3-(furan-2-yl)propanamide] |  | 4 µM | 4 µM | minimal effective concentration (NMP53^−/− cells; [1]): 4 µM; selectivity for NMP53^−/− cells (NMP53^−/− cells): loss of selectivity; minimal effective concentration (NMCdkn2a^ARF−/− cells; [1]): 4 µM
14 | CCn1cc(-c2ccc(CNc3ccc(F)c(NC(=O)CCc4ccco4)c3)cc2)cn1 [Compound 3b, N-(5-((4-(1-ethyl-1H-pyrazole-4-yl)benzyl)amino)-2-fluorophenyl)-3-(furan-2-yl)propanamide] |  | 0.25 µM | 0.125 µM | minimal effective concentration (NMP53^−/− cells; [1]): 0.125 µM; selectivity for NMP53^−/− cells (NMP53^−/− cells): loss of selectivity; minimal effective concentration (NMCdkn2a^ARF−/− cells; [1]): 0.25 µM
15 | Cn1cc(-c2ccc(CNc3ccc(F)c(NC(=O)CCC4CCCO4)c3)cc2)cn1 (centres unmarked) [Compound 107g, N-(2-fluoro-5-((4-(1-methyl-1H-pyrazol-4-yl)benzyl)amino)phenyl)-3-(tetrahydrofuran-2-yl)propanamide] |  | 2 µM | 0.125 µM | 
16 | Cn1cc(-c2ccc(CNc3ccc(F)c(NC(=O)CCc4ccco4)c3)cn2)cn1 [Compound 128e, N-(2-fluoro-5-(((6-(1-methyl-1H-pyrazol-4-yl)pyridin-3-yl)methyl)amino)phenyl)-3-(furan-2-yl)propanamide] |  | > 2 µM | 0.25 µM | 
17 | Cn1cc(-c2ccc(CNc3ccc(F)c(NC(=O)CCc4ccccc4)c3)nc2)cn1 [Compound 130, N-(2-fluoro-5-(((5-(1-methyl-1H-pyrazol-4-yl)pyridin-2-yl)methyl)amino)phenyl)-3-phenylpropanamide] |  | > 1 µM | 0.5 µM | 
